From the supplement of paper PMC11451515

Experiments:
Details in all cases: 48 h
SEM cells [1] = assay: AUC of viability dose-response curve (% viability x log10 dose units); higher = less sensitive
Summary of the method: (§1)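 Seeding of medium-adapted leukemia cells was at 500 or 1000 cells/well in 1536-well plates, followed by 48 h at 37°C with library compounds in DMSO at 11 threefold doses from 47 μM to 0.79 nM. CellTiter-Glo One luminescence was normalised per plate to DMSO and cell-free wells and fitted as a four-parameter log-logistic function of log10 dose. Area under the curve was integrated by trapezoidal rule, with curves exceeding full viability scaled and curves failing quality control removed.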

NOMO1 [2] = assay: as above
Summary of the method: as §1

P12-Ichikawa [3] = assay: as above
Summary of the method: as §1

SEM cells [4] = assay: cell viability relative to DMSO control; higher = less cytotoxic
Summary of the method: (§2)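 NOMO1 or SEM (500 cells/well) or P12-Ichikawa (1000 cells/well) leukemia cells were adapted for at least four passages in each medium. They were seeded in 1536-well plates (5 μl) and pin-dosed with library compounds in DMSO over an 11-point threefold series, 47 μM to 0.79 nM. CellTiter-Glo One luminescence was read after 48 h at 37°C. Viability is the per-plate percentage relative to DMSO wells, with cell-free wells as background.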

NOMO1 [5] = assay: as above
Summary of the method: as §2

P12-Ichikawa [6] = assay: as above
Summary of the method: as §2

CCN1CCN(c2ccc(Nc3cc(N(C)C(=O)Nc4c(Cl)c(OC)cc(OC)c4Cl)ncn3)cc2)CC1
AUC of viability dose-response curve
Details | NOMO1 [2] | P12-Ichikawa [3] | SEM cells [1]
HPLM + 10% dialyzed FBS | 372 | 429 | 347
RPMI 5 mM glucose + 10% FBS | 395 | 428 | 316
RPMI 5 mM glucose + 10% dialyzed FBS | 399 | 423 | 351

cell viability [%]
Details | NOMO1 [5] | P12-Ichikawa [6] | SEM cells [4]
HPLM + 10% dialyzed FBS, 0.000781 µM | 103 | 107 | 95
HPLM + 10% dialyzed FBS, 0.00234 µM | 120 | 109 | 63.6
HPLM + 10% dialyzed FBS, 0.00702 µM | 124 | 103 | 102
HPLM + 10% dialyzed FBS, 0.0211 µM | 124 | 108 | 93.3
HPLM + 10% dialyzed FBS, 0.0632 µM | 102 | 106 | 102
HPLM + 10% dialyzed FBS, 0.19 µM | 117 | 97.8 | 96.9
HPLM + 10% dialyzed FBS, 0.569 µM | 98.8 | 97.4 | 84.2
HPLM + 10% dialyzed FBS, 1.71 µM | 90.9 | 105 | 82.9
HPLM + 10% dialyzed FBS, 5.12 µM | 41.7 | 77.7 | 35.5
HPLM + 10% dialyzed FBS, 15.4 µM | 25.9 | 73.3 | 17
HPLM + 10% dialyzed FBS, 46.1 µM | 11.6 | 35.3 | 5.71
RPMI 5 mM glucose + 10% FBS, 0.000781 µM | 119 | 115 | 90.1
RPMI 5 mM glucose + 10% FBS, 0.00234 µM | 131 | 114 | 104
RPMI 5 mM glucose + 10% FBS, 0.00702 µM | 114 | 119 | 92.3
RPMI 5 mM glucose + 10% FBS, 0.0211 µM | 118 | 124 | 102
RPMI 5 mM glucose + 10% FBS, 0.0632 µM | 110 | 118 | 84.2
RPMI 5 mM glucose + 10% FBS, 0.19 µM | 118 | 118 | 90.4
RPMI 5 mM glucose + 10% FBS, 0.569 µM | 121 | 113 | 73.4
RPMI 5 mM glucose + 10% FBS, 1.71 µM | 111 | 115 | 60.9
RPMI 5 mM glucose + 10% FBS, 5.12 µM | 63.3 | 86 | 5.11
RPMI 5 mM glucose + 10% FBS, 15.4 µM | 34.3 | 76.7 | 4.6
RPMI 5 mM glucose + 10% FBS, 46.1 µM | 15.9 | 47.6 | 1.95
RPMI 5 mM glucose + 10% dialyzed FBS, 0.000781 µM | 103 | 114 | 103
RPMI 5 mM glucose + 10% dialyzed FBS, 0.00234 µM | 106 | 112 | 84
RPMI 5 mM glucose + 10% dialyzed FBS, 0.00702 µM | 119 | 108 | 110
RPMI 5 mM glucose + 10% dialyzed FBS, 0.0211 µM | 116 | 124 | 96
RPMI 5 mM glucose + 10% dialyzed FBS, 0.0632 µM | 130 | 114 | 118
RPMI 5 mM glucose + 10% dialyzed FBS, 0.19 µM | 103 | 126 | 95.6
RPMI 5 mM glucose + 10% dialyzed FBS, 0.569 µM | 111 | 111 | 92.8
RPMI 5 mM glucose + 10% dialyzed FBS, 1.71 µM | 108 | 110 | 71.6
RPMI 5 mM glucose + 10% dialyzed FBS, 5.12 µM | 68.8 | 76.8 | 8.12
RPMI 5 mM glucose + 10% dialyzed FBS, 15.4 µM | 32.7 | 66.8 | 6.53
RPMI 5 mM glucose + 10% dialyzed FBS, 46.1 µM | 14.9 | 53.2 | 2.21

CCN1CCN(CC1)CC(=O)NC2=CC=C(C3=C2C4=C(S3)C=CC=C4)C5=C6O\C(=C/C(=O)C6=CC=C5)N7CCOCC7
AUC of viability dose-response curve
Details | NOMO1 [2] | P12-Ichikawa [3] | SEM cells [1]
HPLM + 10% dialyzed FBS | 420 | 464 | 337
RPMI 5 mM glucose + 10% FBS | 442 | 447 | 337
RPMI 5 mM glucose + 10% dialyzed FBS | 432 | 453 | 338

cell viability [%]
Details | HPLM + 10% dialyzed FBS | RPMI 5 mM glucose + 10% FBS | RPMI 5 mM glucose + 10% dialyzed FBS
NOMO1 [5], 0.000781 µM | 108 | 116 | 120
NOMO1 [5], 0.00234 µM | 121 | 115 | 120
NOMO1 [5], 0.00702 µM | 122 | 123 | 131
NOMO1 [5], 0.0211 µM | 123 | 120 | 118
NOMO1 [5], 0.0632 µM | 117 | 128 | 128
NOMO1 [5], 0.19 µM | 124 | 129 | 128
NOMO1 [5], 0.569 µM | 121 | 130 | 109
NOMO1 [5], 1.71 µM | 94.2 | 120 | 110
NOMO1 [5], 5.12 µM | 79.7 | 98 | 77.8
NOMO1 [5], 15.4 µM | 63.6 | 74.5 | 64.3
NOMO1 [5], 46.1 µM | 75.3 | 86.1 | 99.1
SEM cells [4], 0.000781 µM | 107 | 117 | 137
SEM cells [4], 0.00234 µM | 98.2 | 108 | 122
SEM cells [4], 0.00702 µM | 109 | 107 | 123
SEM cells [4], 0.0211 µM | 106 | 95.2 | 116
SEM cells [4], 0.0632 µM | 111 | 124 | 105
SEM cells [4], 0.19 µM | 93.4 | 91.7 | 110
SEM cells [4], 0.569 µM | 88.4 | 82.3 | 88.6
SEM cells [4], 1.71 µM | 30 | 55.6 | 71.3
SEM cells [4], 5.12 µM | 18 | 14.4 | 24
SEM cells [4], 15.4 µM | 8.23 | 8.04 | 9.66
SEM cells [4], 46.1 µM | 30.3 | 27.8 | 27.2

O=c1[nH]c2ccccc2n1CCCN1CCC(n2c(=O)[nH]c3cc(Cl)ccc32)CC1
AUC of viability dose-response curve
Details | NOMO1 [2] | P12-Ichikawa [3] | SEM cells [1]
HPLM + 10% dialyzed FBS | 459 | 467 | 448
RPMI 5 mM glucose + 10% FBS | 466 | 460 | 473
RPMI 5 mM glucose + 10% dialyzed FBS | 472 | 470 | 475

NOMO1 [5], RPMI 5 mM glucose + 10% FBS
Details | cell viability [%]
0.000781 µM | 124
0.00234 µM | 146
0.00702 µM | 123
0.0211 µM | 134
0.0632 µM | 151
0.19 µM | 149
0.569 µM | 137
1.71 µM | 116
5.12 µM | 131
15.4 µM | 146
46.1 µM | 122

CCN(CC)CCOc1ccc(/C(=C(\Cl)c2ccccc2)c2ccccc2)cc1
AUC of viability dose-response curve
Details | NOMO1 [2] | P12-Ichikawa [3] | SEM cells [1]
HPLM + 10% dialyzed FBS | 458 | 466 | 470
RPMI 5 mM glucose + 10% FBS | 471 | 469 | 462
RPMI 5 mM glucose + 10% dialyzed FBS | 473 | 456 | 470

cell viability [%]
Details | HPLM + 10% dialyzed FBS | RPMI 5 mM glucose + 10% FBS | RPMI 5 mM glucose + 10% dialyzed FBS
NOMO1 [5], 0.000781 µM | 124 | – | –
NOMO1 [5], 0.00234 µM | 123 | – | –
NOMO1 [5], 0.00702 µM | 130 | – | –
NOMO1 [5], 0.0211 µM | 136 | – | –
NOMO1 [5], 0.0632 µM | 150 | – | –
NOMO1 [5], 0.19 µM | 134 | – | –
NOMO1 [5], 0.569 µM | 130 | – | –
NOMO1 [5], 1.71 µM | 134 | – | –
NOMO1 [5], 5.12 µM | 109 | – | –
NOMO1 [5], 15.4 µM | 122 | – | –
NOMO1 [5], 46.1 µM | 102 | – | –
SEM cells [4], 0.000781 µM | 111 | 90 | 104
SEM cells [4], 0.00234 µM | 118 | 94.7 | 124
SEM cells [4], 0.00702 µM | 128 | 115 | 125
SEM cells [4], 0.0211 µM | 114 | 116 | 127
SEM cells [4], 0.0632 µM | 118 | 118 | 142
SEM cells [4], 0.19 µM | 116 | 128 | 144
SEM cells [4], 0.569 µM | 134 | 124 | 127
SEM cells [4], 1.71 µM | 125 | 116 | 126
SEM cells [4], 5.12 µM | 129 | 108 | 123
SEM cells [4], 15.4 µM | 112 | 116 | 126
SEM cells [4], 46.1 µM | 101 | 91.6 | 118
